Measured values: patent US5668128A, “Aziridine derivatives, their production and use” (Takeda Chemical Industries, Ltd., priority 1994, dated 1997)
Structures can show the parent of a compound that is named as a salt.

Tests used:
[1] = target: T1, human recombinant cathepsin L (Homo sapiens, UniProt P07711); experiment: Determination of cathepsin L inhibitory activity; type: biochemical; details: pH 5.5, 37° C., 20 minutes, Z-Phe-Arg-7MCA substrate; read-out: Inhibitory activity potency IC50 (ng/ml) Cathepsin L (converted)
T1 construct: they were identified as a precursor of human cathepsin L and a product processed therefrom, estimated from these molecular weights; made in house; host or cells: mouse myeloma Sp2/0 cells transformed with pTBN-HCLneo (Sp-HCL26); purified from serum-free culture supernatant on CM-Sephadex C-50 and Mono S
T1 sequence (P07711 114-333): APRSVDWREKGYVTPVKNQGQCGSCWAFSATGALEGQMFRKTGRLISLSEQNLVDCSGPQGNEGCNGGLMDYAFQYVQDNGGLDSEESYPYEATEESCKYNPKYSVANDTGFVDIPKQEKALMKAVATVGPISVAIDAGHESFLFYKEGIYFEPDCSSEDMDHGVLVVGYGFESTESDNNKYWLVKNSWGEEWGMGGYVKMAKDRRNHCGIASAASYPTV
Procedure: The bioactivities of the compounds of this invention are described below. The compounds [I] or salts thereof have activities of inhibiting cathepsin L and cathepsin B, and of potently inhibiting thiol protease. Their inhibitory activities against cathepsin L were determined by the methods described below.
Determination of cathepsin L inhibitory activity
To 75 μl of a reaction mixture containing 1 ng of human recombinant cathepsin L (as produced in Reference Examples 1 through 7 below), 2 μM of dithiothreitol (hereinafter abbreviated as DTT), 1 mM of ethylenediamine tetraacetate disodium salt, a 0.1M sodium acetate buffer solution (pH 5.5) and various concentrations of test samples, 25 μl of 20 μM benzyloxycarbonyl-L-phenylalanyl-L-arginine-4-methylcoumaryl-7-amide (hereinafter abbreviated as Z-Phe-Arg-7MCA, manufactured by Peptide Institute) was added to initiate the reaction. After incubation at 37° C. for 20 minutes, 100 μl of a reaction stopper solution containing 100 mM sodium monochloroacetate was added. The amount of liberated 4-methyl-7-aminocoumarin was determined at an excitation wavelength of 365 nm and a fluorescence wavelength of 450 nm, using a fluorophotometer (FCA:manufactured by Baxter Travenol). The sample concentration required to cause 50% inhibition was expressed as the IC50 value, with the fluorescence value obtained from the same reaction in the absence of the sample taken as 100%.

[2] = system: mice; experiment: Toxicity study; type: in vivo; details: intravenously or intraperitoneally, 1,000 mg/kg
Procedure: Compound 4 caused no death in mice when it was intravenously or intraperitoneally administered at 1,000 mg/kg.

[3] = system: bone resorption as enhanced by PTH (parathyroid hormone); experiment: Determination of bone resorption suppressive activity (PTH-stimulated mouse femur culture); type: cell-based, female BALB/c mice; details: 168 h, test compound 10 μg/ml, PTH 1 μM, cultured 7 days
Procedure: The compounds [I] or salts thereof of this invention show suppressive action against bone resorption as enhanced by PTH (parathyroid hormone), and the action was determined by method described below. Determination of bone resorption suppressive activity
Femurs were aseptically isolated from female BALB/c mice at 8-10 weeks of age. After the bone marrow cavity was washed with a Ham F12 medium containing 10 weight % thermally inactivated fetal calf serum, 100 unit/ml penicillin G and 100 unit/ml streptomycin (hereinafter referred to as culture broth), each femur was added to 1 ml of the culture broth and precultured for 3 hours at 37° C. in the presence of 5% carbon dioxide and 95% air. Each bone was transferred to 1 ml of the culture broth supplemented with PTH (manufactured by Peptide Institute, Inc., final concentration 1 μM) and the test compound (final concentration 10 μg/ml) and cultured for 7 more days, after which the total calcium content in the culture broth was determined using Calcium E-Test Wako (manufactured by Wako Pure Chemical Industries, Ltd.). The bone resorption suppressive activity of the test compound was calculated using the following equation.
Bone resorption suppressive activity (%)=100×(Cp-Cs)/(Cp-Cc)
Cc: Total calcium content in the culture broth containing neither PTH nor test compound
Cp: Total calcium content in the culture broth containing PTH […]

| Compound | IC50 [1] [nM] | death in mice [2] | activity at 10 µg/mL [3] [%] |
| --- | --- | --- | --- |
| CC(C)CCNC(=O)[C@H](Cc1ccccc1)NC(=O)[C@H]1N[C@@H]1C(=O)[O-].[Na+] [Compound 4, N-[N-[(2S,3S)-3-Carboxyaziridine-2-carbonyl]-L-phenylalanyl]isopentylamine sodium salt] | 13.5 | no death | – |
| NCCCCNC(=O)[C@H](Cc1ccccc1)NC(=O)[C@H]1N[C@@H]1C(=O)O [Compound 7, N-[N-[(2S,3S)-3-carboxyaziridine-2-carbonyl]-L-phenylalanyl]-1,4-diaminobutane] | 8.61 | – | 99 |
| CC(C)CCNC(=O)[C@H](Cc1ccccc1)NC(=O)[C@@H]1[C@@H](C(=O)O)N1C (stereo partly drawn) [Compound 43, N-[N-[(2S,3S)-N-Methyl-3-carboxyaziridine-2-carbonyl]-L-phenylalanyl]isopentylamine Sodium Salt] | 0.522 | – | – |
| CCN1[C@H](C(=O)O)[C@H]1C(=O)N[C@@H](Cc1ccccc1)C(=O)NCCC(C)C (stereo partly drawn) [Compound 45, N-[N-[(2S,3S)-N-Ethyl-3-Carboxyaziridine-2-carbonyl]-L-phenylalanyl]isopentylamine Sodium Salt] | 0.252 | – | – |
